Source: ChEMBL document CHEMBL5291721, “A preclinical secondary pharmacology resource illuminates target-adverse drug reaction associations of marketed drugs” (Nat Commun, 2023)

Key:
[1] = molecular target: Sodium-dependent noradrenaline transporter (Homo sapiens, UniProt P23975)
[2] = molecular target: T1, Progesterone receptor (Homo sapiens, UniProt P06401); type: functional
T1 sequence (P06401 whole entry): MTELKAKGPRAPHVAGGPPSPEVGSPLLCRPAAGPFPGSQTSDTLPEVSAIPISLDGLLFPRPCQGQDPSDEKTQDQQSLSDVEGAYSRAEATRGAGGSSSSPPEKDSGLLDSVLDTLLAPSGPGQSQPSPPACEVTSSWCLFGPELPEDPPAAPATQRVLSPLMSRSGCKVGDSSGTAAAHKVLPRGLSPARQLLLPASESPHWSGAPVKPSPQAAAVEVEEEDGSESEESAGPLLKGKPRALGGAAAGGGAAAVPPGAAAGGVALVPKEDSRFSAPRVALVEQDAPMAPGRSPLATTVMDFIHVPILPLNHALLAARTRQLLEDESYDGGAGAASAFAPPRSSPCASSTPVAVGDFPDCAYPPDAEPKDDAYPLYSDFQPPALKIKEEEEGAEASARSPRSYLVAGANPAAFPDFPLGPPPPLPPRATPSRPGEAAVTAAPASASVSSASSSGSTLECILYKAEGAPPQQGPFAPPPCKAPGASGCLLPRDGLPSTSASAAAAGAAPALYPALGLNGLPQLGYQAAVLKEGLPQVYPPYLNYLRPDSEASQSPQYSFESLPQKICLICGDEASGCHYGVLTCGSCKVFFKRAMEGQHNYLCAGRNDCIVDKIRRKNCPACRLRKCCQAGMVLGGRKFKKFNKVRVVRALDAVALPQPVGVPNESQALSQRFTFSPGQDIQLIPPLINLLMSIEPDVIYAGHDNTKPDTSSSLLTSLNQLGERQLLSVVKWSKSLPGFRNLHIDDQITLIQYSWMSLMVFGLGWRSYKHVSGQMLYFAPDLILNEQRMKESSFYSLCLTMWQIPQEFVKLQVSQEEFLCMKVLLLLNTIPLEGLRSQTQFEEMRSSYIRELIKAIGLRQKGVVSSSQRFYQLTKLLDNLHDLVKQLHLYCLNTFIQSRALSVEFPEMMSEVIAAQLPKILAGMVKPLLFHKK

[3] = molecular target: T2, 5-hydroxytryptamine receptor 1A (Homo sapiens, UniProt P08908); type: functional, cell-based
T2 sequence (P08908 whole entry): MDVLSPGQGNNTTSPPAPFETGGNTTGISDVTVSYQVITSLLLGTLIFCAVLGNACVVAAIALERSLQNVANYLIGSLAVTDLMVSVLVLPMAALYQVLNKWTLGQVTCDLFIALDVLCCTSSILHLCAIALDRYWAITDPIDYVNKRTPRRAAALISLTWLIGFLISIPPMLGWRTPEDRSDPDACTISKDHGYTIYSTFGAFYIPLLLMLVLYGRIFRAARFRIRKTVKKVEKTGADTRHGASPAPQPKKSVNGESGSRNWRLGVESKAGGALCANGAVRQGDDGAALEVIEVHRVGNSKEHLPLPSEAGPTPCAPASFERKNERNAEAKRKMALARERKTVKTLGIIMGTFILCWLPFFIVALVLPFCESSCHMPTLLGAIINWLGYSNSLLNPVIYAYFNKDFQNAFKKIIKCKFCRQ

[4] = molecular target: T3, Prostaglandin G/H synthase 1 (Rattus norvegicus, UniProt Q63921); type: functional
T3 sequence (Q63921 whole entry): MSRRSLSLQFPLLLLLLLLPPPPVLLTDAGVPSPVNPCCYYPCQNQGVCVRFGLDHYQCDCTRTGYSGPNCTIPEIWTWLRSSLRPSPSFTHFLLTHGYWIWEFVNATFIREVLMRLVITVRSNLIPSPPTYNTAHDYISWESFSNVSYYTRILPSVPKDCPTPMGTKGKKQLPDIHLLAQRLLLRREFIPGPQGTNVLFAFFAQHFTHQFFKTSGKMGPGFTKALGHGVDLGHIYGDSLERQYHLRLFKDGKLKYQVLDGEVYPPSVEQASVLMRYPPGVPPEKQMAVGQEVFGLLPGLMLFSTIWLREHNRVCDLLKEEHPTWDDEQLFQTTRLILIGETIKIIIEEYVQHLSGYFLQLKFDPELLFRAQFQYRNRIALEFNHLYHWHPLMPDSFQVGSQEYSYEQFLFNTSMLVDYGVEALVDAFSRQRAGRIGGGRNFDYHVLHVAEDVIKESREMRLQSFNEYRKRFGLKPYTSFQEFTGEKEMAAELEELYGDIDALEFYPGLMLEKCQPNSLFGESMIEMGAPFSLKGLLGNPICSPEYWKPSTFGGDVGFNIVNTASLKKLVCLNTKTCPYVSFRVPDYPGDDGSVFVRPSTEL

[5] = molecular target: T4, Alpha-1A adrenergic receptor (Homo sapiens, UniProt P35348); type: functional, cell-based
T4 sequence (P35348 whole entry): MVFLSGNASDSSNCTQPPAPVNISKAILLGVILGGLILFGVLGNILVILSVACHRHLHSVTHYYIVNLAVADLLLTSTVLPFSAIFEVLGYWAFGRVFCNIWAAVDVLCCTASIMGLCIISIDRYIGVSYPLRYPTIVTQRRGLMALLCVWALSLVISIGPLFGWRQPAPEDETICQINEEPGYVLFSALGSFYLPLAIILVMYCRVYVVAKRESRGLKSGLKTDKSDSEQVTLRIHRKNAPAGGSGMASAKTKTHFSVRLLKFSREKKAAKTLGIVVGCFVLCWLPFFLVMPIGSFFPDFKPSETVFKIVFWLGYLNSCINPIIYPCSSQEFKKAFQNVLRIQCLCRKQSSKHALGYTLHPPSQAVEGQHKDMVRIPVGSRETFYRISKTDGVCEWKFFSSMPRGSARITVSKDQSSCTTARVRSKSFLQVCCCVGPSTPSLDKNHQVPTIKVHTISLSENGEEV

[6] = molecular target: Sodium-dependent dopamine transporter (Homo sapiens, UniProt Q01959)
Sodium-dependent dopamine transporter, sequence (Q01959 whole entry): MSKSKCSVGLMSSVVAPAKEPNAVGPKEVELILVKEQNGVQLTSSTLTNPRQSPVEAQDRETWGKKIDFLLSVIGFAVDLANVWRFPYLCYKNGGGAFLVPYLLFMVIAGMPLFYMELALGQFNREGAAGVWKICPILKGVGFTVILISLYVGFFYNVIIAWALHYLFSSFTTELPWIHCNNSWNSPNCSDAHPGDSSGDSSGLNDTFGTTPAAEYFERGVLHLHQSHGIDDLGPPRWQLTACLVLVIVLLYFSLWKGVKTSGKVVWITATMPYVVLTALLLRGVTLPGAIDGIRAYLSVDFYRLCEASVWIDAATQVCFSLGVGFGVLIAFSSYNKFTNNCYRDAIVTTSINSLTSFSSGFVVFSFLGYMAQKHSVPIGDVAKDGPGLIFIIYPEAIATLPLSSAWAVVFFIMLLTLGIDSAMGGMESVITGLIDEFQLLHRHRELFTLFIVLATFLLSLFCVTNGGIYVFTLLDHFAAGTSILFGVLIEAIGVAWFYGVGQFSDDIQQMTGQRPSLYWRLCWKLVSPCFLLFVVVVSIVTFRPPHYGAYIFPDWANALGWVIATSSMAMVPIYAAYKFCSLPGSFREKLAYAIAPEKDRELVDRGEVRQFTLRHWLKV

[7] = molecular target: Histamine H2 receptor (Homo sapiens, UniProt P25021); type: functional, cell-based
Histamine H2 receptor, sequence (P25021 whole entry): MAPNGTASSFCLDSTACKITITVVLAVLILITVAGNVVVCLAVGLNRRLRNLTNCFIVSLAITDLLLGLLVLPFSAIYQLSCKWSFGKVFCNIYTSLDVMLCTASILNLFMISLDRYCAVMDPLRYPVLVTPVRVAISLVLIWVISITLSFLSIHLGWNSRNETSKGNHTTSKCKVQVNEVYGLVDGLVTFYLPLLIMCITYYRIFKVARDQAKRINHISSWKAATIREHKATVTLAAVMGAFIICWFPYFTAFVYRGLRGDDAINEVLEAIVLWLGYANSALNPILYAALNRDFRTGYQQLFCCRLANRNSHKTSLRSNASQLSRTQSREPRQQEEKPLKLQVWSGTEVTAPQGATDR

[8] = molecular target: T2, 5-hydroxytryptamine receptor 1A; type: functional, cell-based; remark: listed apart in the source
[9] = molecular target: Bile salt export pump (Homo sapiens, UniProt O95342); type: functional
Bile salt export pump, sequence (O95342 whole entry): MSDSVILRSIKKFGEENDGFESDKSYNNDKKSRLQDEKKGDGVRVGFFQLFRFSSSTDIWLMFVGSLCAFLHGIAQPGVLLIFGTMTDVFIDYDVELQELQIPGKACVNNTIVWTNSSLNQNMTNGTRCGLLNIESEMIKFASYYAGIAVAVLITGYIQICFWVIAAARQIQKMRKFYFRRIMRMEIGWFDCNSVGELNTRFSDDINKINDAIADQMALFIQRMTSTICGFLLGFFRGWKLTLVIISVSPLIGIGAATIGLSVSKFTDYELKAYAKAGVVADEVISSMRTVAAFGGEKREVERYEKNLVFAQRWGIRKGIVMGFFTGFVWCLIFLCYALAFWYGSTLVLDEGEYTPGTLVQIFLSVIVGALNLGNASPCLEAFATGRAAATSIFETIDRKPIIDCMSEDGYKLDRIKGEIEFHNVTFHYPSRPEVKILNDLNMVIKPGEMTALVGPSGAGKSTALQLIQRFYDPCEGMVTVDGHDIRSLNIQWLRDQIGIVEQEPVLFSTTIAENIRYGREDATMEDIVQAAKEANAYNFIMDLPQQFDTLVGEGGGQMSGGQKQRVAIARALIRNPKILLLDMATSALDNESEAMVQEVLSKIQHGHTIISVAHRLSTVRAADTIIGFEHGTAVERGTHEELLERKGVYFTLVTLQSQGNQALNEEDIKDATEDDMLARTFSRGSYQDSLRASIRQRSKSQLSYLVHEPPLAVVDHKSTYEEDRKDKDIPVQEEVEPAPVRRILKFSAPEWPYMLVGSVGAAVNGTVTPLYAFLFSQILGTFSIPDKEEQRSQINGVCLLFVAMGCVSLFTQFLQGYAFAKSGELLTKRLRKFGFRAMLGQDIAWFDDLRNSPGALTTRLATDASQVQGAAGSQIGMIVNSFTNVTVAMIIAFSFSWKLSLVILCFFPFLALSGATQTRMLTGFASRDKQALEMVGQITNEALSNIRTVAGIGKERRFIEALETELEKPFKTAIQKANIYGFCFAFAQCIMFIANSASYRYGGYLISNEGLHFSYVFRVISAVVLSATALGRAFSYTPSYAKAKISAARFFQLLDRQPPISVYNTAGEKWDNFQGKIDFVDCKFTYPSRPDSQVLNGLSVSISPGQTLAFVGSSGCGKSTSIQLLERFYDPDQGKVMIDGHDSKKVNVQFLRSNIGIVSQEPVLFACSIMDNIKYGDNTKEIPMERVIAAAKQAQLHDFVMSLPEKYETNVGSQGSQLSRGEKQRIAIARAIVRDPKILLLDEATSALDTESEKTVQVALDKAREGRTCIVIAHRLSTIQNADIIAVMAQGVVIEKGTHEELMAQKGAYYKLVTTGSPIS
Note: assay procedure not described here.

Sodium-dependent noradrenaline transporter, sequence (P23975 whole entry): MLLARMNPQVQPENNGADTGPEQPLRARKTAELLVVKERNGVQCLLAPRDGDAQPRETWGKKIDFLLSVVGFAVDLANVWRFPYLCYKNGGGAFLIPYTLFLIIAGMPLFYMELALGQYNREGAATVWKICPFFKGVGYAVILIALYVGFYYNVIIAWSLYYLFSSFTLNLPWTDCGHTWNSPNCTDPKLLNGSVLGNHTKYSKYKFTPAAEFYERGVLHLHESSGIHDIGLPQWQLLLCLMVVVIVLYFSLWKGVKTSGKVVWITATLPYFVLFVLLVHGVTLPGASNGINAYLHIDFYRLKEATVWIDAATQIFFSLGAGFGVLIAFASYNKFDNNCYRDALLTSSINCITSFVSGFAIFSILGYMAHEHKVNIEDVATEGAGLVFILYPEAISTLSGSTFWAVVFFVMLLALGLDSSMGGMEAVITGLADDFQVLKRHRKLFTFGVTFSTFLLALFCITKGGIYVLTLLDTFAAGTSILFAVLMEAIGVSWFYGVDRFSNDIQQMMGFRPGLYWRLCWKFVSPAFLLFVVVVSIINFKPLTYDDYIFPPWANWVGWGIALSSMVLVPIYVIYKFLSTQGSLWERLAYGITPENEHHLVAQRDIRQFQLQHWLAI

| Compound | AC50 [1] | AC50 [2] | AC50 [3] | AC50 [4] | AC50 [5] | AC50 [6] | AC50 [7] | AC50 [8] | AC50 [9] |
| --- | --- | --- | --- | --- | --- | --- | --- | --- | --- |
| CCOc1nc2cccc(C(=O)O)c2n1Cc1ccc(-c2ccccc2-c2nnn[nH]2)cc1 | > 30 µM | > 30 µM | > 30 µM | > 30 µM | > 30 µM | > 30 µM | > 10 µM | > 30 µM | 100 µM |
| CCCc1nc2c(C)cc(-c3nc4ccccc4n3C)cc2n1Cc1ccc(-c2ccccc2C(=O)O)cc1 | > 30 µM | > 30 µM | > 30 µM | > 30 µM | 3 µM | > 30 µM | > 10 µM | > 30 µM | 5 µM |
| CCOc1cc([C@@H](CS(C)(=O)=O)N2C(=O)c3cccc(NC(C)=O)c3C2=O)ccc1OC | > 30 µM | > 30 µM | > 30 µM | > 30 µM | > 30 µM | > 30 µM |  | > 30 µM | 139 µM |
| CC(=O)Nc1ccc(CC(=O)O)cc1 [ACTARIT] | > 30 µM | > 30 µM | > 30 µM | > 30 µM | > 30 µM | > 30 µM | > 30 µM | > 30 µM | > 300 µM |
| CC(C(=O)O)c1ccc2oc(-c3ccc(Cl)cc3)nc2c1 (centres undefined) [BENOXAPROFEN] | > 30 µM | > 30 µM | > 30 µM |  | 23 µM | > 30 µM | > 30 µM | > 30 µM | 120 µM |
| CCCNC(=O)NS(=O)(=O)c1ccc(Cl)cc1 [CHLORPROPAMIDE] | > 30 µM |  | > 10 µM | > 30 µM | > 30 µM | > 30 µM | > 10 µM | > 10 µM | > 300 µM |
| Clc1ccc(Cn2c(CN3CCCC3)nc3ccccc32)cc1 [CLEMIZOLE] | > 30 µM |  | > 30 µM | > 30 µM | 13 µM | 24 µM |  | > 30 µM | 29 µM |
| CCC(=O)O[C@]1(C(=O)CCl)[C@@H](C)C[C@H]2[C@@H]3CCC4=CC(=O)C=C[C@]4(C)[C@@]3(F)[C@@H](O)C[C@@]21C [CLOBETASOL PROPIONATE] | > 30 µM | 0.053 µM |  | > 30 µM | > 30 µM | > 30 µM | > 30 µM | > 30 µM | 23 µM |
| CC(C)Cc1ccc([C@H](C)C(=O)O)cc1 [DEXIBUPROFEN] | > 30 µM | > 30 µM | > 30 µM |  | > 30 µM | > 30 µM |  | > 30 µM | 188 µM |
| Cc1onc(-c2c(F)cccc2Cl)c1C(=O)N[C@@H]1C(=O)N2[C@@H]1SC(C)(C)[C@@H]2C(=O)O [FLOXACILLIN] | > 30 µM | > 30 µM | > 30 µM | > 30 µM | > 30 µM | > 30 µM |  | > 30 µM | 50 µM |
| CCCCCCCN(CC)CCCC(O)c1ccc(NS(C)(=O)=O)cc1 (centres undefined) [IBUTILIDE] | > 30 µM | > 30 µM |  | > 30 µM | > 30 µM | > 30 µM | > 30 µM | > 30 µM | > 300 µM |
| CC[C@H](C)C(=O)O[C@H]1C[C@@H](C)C=C2C=C[C@H](C)[C@H](CC[C@@H]3C[C@@H](O)CC(=O)O3)[C@H]21 [LOVASTATIN] | > 10 µM |  | > 10 µM | > 30 µM |  | > 10 µM | > 10 µM | > 10 µM | 27 µM |
| CNC(=C[N+](=O)[O-])NCCSCc1csc(CN(C)C)n1 [NIZATIDINE] | > 10 µM | > 10 µM | > 10 µM | > 10 µM |  | > 10 µM | > 10 µM | > 10 µM | > 300 µM |
| CC(CN1c2ccccc2Sc2ccccc21)N(C)C (centres undefined) [PROMETHAZINE] | 0.81 µM |  | > 10 µM | > 30 µM | 1.7 µM | > 10 µM | > 10 µM | > 10 µM | > 300 µM |
| CCCc1cc(=O)[nH]c(=S)[nH]1 [PROPYLTHIOURACIL] | > 10 µM | > 10 µM | > 10 µM | 6.6 µM |  | > 10 µM | > 10 µM | > 10 µM | > 300 µM |
| Cn1cc(C(=O)[C@@H]2CCc3nc[nH]c3C2)c2ccccc21 [RAMOSETRON] | > 30 µM | > 30 µM |  | > 30 µM | > 30 µM | > 30 µM | > 30 µM | > 30 µM | > 300 µM |
| CN(CCOc1ccc(CC2SC(=O)NC2=O)cc1)c1ccccn1 (centres undefined) [ROSIGLITAZONE] | > 30 µM | > 30 µM |  | > 30 µM | 11 µM | > 30 µM | > 30 µM | > 30 µM | 1 µM |
| S=P(N1CC1)(N1CC1)N1CC1 [THIOTEPA] |  | > 30 µM | > 10 µM | > 30 µM | 0.044 µM | 27 µM |  | > 10 µM | 83 µM |
| CC(C)[C@H](N)C(=O)OCCOCn1cnc2c(=O)[nH]c(N)nc21 [VALACYCLOVIR] | > 10 µM |  | > 10 µM | > 30 µM | > 30 µM | > 10 µM | > 10 µM | > 10 µM | > 300 µM |
| COc1cc(C(=O)NS(=O)(=O)c2ccccc2C)ccc1Cc1cn(C)c2ccc(NC(=O)OC3CCCC3)cc12 [ZAFIRLUKAST] | > 10 µM | > 30 µM |  | 5.1 µM | 5.9 µM | > 10 µM | > 10 µM | > 10 µM | 2.28 µM |
